The record followed here is patent publication US20070213339A1 (Bayer Pharmaceuticals Corporation, priority 2004, published 2007).

The structures appear in SMILES notation.

The subject of this assay is Colo205 human colon carcinoma cell line. Nature of the assay: In vitro tumor cell proliferation assay (MTS, CellTiter 96 Aqueous One Solution). The assay is classed as cell-based. The settings on record: COLO 205, Colo205 cells, 72 hours compound exposure, MTS absorbance at 490 nm, read-out: IC50 (concentration of test compound required to inhibit proliferation of 50% of the cells). The procedure, abridged: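 Proliferation measured as MTS tetrazolium reduction (490 nm) after 72 h compound exposure at 37 °C. Cells plated at 2000 per well in serum-supplemented RPMI-1640; duplicate 5-point dilutions topping out at 10-20 μM. Percent inhibition versus untreated and cell-free wells, IC50 derived by linear regression.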
For the molecule `O=C(O)c1cn(-c2ccc(CN3CC[C@H](O)C3)cc2)c2c(Cl)c(N3CCN(c4ccccn4)CC3)c(F)cc2c1=O` [Example 28, 8-chloro-6-fluoro-1-(4-{[(3S)-3-hydroxypyrrolidin-1-yl]methyl}phenyl)-4-oxo-7-(4-pyridin-2-ylpiperazin-1-yl)-1,4-dihydroquinoline-3-carboxylic acid], the IC50 is less than 500 nM.
Under `COc1c(N2CCN(c3ccccn3)CC2)c(F)cc2c(=O)c(C(=O)O)cn(-c3ccc(CN(C)C)cc3)c12` [Example 92, 1-{4-[(dimethylamino)methyl]phenyl}-6-fluoro-8-methoxy-4-oxo-7-(4-pyridin-2-ylpiperazin-1-yl)-1,4-dihydroquinoline-3-carboxylic acid] stands less than 500 nM.
Then `O=C(O)c1cn(-c2ccc(CNC3CCC3)cc2)c2c(Cl)c(N3CCN(c4ccccn4)CC3)c(F)cc2c1=O` [Example 58, 8-chloro-1-{4-[(cyclobutylamino)methyl]-phenyl}-6-fluoro-4-oxo-7-(4-pyridin-2-ylpiperazin-1-yl)-1,4-dihydroquinoline-3-carboxylic acid], with less than 500 nM.
With `COC[C@H]1CCCN1Cc1ccc(-n2cc(C(=O)O)c(=O)c3cc(F)c(N4CCN(c5ncccn5)CC4)c(Cl)c32)cc1` [Example 22, 8-chloro-6-fluoro-1-(4-{[(2R)-2-(methoxy-methyl)pyrrolidin-1-yl]methyl}phenyl)-4-oxo-7-(4-pyrimidin-2-ylpiperazin-1-yl)-1,4-dihydroquinoline-3-carboxylic acid], the IC50 was 500 to 2000 nM.
